Data as given in patent US20240269238A1, “Therapeutic Regimens and Methods for Reducing Body Weight in a Subject with Fatty Liver Disease using a GLP-1R and GCGR Agonist” (Spitfire Pharma LLC, priority 2022, published 2024).

What was measured:
[1] = tested on: plasma lipids and lipoproteins; experiment: Phase 1 study NCT0456124 (Example 2): lipoprotein profiling by NMR and lipidomic profiling by UHPLC-MS; assay type: in vivo, human
Description: To test the lipid-lowering effects of pemvidutide, an analysis of Phase I clinical trial (NCT0456124) data was carried out. The subjects with overweight/obesity (BMI 25-40 kg/m^2) were randomized at 1 site in Australia (NCT0456124). Subjects were randomized 4:1 pemvidutide:placebo, with placebos pooled. […] Lipoprotein and glycoprotein profiling covering 33 lipoprotein related parameters was performed by ^1H-NMR on fasting plasma samples obtained at Day −1 (baseline), Day 43, and Day 84 from the 34 subjects who completed NCT0456124. Lipidomic profiling covering 600 lipid species was performed by ultra-high performance liquid chromatography-mass spectrometry on fasting plasma samples obtained at Day −1 (baseline), Day 43, and Day 84 from the 34 subjects who completed NCT0456124. For the lipid profiling, plasma fractionation was performed either using methanol to extract fatty acyls, bile acids, steroids, and lyso-glycerophospholipids, or using a chloroform/methanol mix to extract glycerolipids, cholesteryl esters, sphingolipids, and glycerophospholipids. Lipid classification followed the classification system proposed by Fahy et al. (J. Lipid Res. 2005; 46:839-861) and the LIPID MAPS initiative (http://www.lipidmaps.org) (see FIG. 8).
The color code represents the log 2 (robust fold-change) with blue colors denoting reduced lipoproteins (negative fold-changes) and red colors denoting increased lipoproteins (positive fold-changes).
Given the observed changes in the total cholesterol, triglycerides and lipoproteins, an evaluation of the serum lipid composition covering 600 lipid species at Day −1 (baseline), Day 43, and Day 84 from the 34 subjects who completed NCT0456124 was performed. Results are presented in FIG. 10 as log 2 pairwise fold change with blue colors denoting a reduction in the lipid relative to baseline, and red an increase. The grey/black bars indicate significant p-values of Wilcoxon test.
The horizontal dashed line represents the lower limit of significance, while the vertical lines show a fold-change from baseline of ±0.75 on the log 2 scale.

[2] = Phase 1b 24-week NAFLD study (Example 3): serum lipids, blood pressure, heart rate, glycemic control; assay type: in vivo, human
Text: Provided herein is disclosure of a 12-week extension study of the study provided in Example 1, providing a 24-week a Phase 1b, randomized, double-blind, placebo-controlled study to assess the effects of pemvidutide (also termed herein as ALT-801), the safety of pemvidutide and effects on weight loss, hepatic fat fraction, anthropometric parameters, lipid metabolism, as well as inflammatory, fibrosis and other markers in diabetic and non-diabetic (type 2 diabetes) overweight and obese (BMI≥28.0 kg/m^2) subjects with NAFLD (defined as liver fat content (LFC) by MRI-PDFF ≥10%; absence of significant fibrosis, defined as FibroScan® LSM ≤10 kPa), alanine aminotransferase (ALT) and aspartate aminotransferase (AST) laboratory values of ≤75 IU/L and HbA1c <9.5. Men and women aged 18-65 years were studied. Diabetic subjects were defined as those that have undergone stable dose (≥3 months) metformin or SLGT-2 therapy and no use of insulin, sulfonylureas, DPP-4, GLP-1 treatment; Ninety-four (94) subjects were enrolled in the initial 12-week Phase 1b NAFLD trial and 83 subjects who completed were invited to receive a total of 12 additional weeks of blinded treatment. Of those subjects, 66 consented to rollover, of which 64 were eligible to participate.
The primary endpoint of this study was a reduction in liver fat content (LFC) by MRI-PDFF at Week 24 compared to Week 0 (zero). Key secondary endpoints include percent (%) weight loss at Week 24 compared to Week 0 (zero), and liver inflammation by alanine aminotransferase (ALT) levels and corrected T1 (cT1) imaging at Week 24 as compared to Week 0 (zero). Adverse events (AEs), including serious and severe AEs, AEs leading to discontinuation, GI tolerability, vital signs, and glycemic control including fasting glucose and HbA1c levels were also measured.

Question: Which results are given for `CC[C@H](C)[C@H](NC(=O)[C@H](Cc1ccccc1)NC(=O)[C@H](CCC(=O)O)NC(=O)[C@@H]1CCCCNC(=O)CC[C@H](NC(=O)[C@H](CC(=O)O)NC(=O)[C@H](CC(C)C)NC(=O)[C@H](Cc2ccc(O)cc2)NC(=O)[C@H](CCCCN)NC(=O)[C@H](CO)NC(=O)[C@H](Cc2ccc(O)cc2)NC(=O)[C@H](CC(=O)O)NC(=O)[C@H](CO)NC(=O)[C@@H](NC(=O)[C@H](Cc2ccccc2)NC(=O)[C@@H](NC(=O)CNC(=O)[C@H](CCC(N)=O)NC(=O)C(C)(C)NC(=O)[C@@H](N)Cc2c[nH]cn2)[C@@H](C)O)[C@H](C)O)C(=O)N[C@@H](CCCCNC(=O)C2O[C@@H](OCCCCCCCCCCCCCCCCCC(=O)O)C(O)C(O)[C@@H]2O)C(=O)N[C@@H](C)C(=O)N[C@@H](C)C(=O)N1)C(=O)N[C@@H](CCC(N)=O)C(=O)N[C@@H](Cc1c[nH]c2ccccc12)C(=O)N[C@@H](CC(C)C)C(=O)N[C@@H](CC(C)C)C(=O)N[C@@H](CCC(N)=O)C(=O)N[C@H](C(N)=O)[C@@H](C)O` (some centres unmarked) [ALT-801, Pemvidutide]?
Answer: phosphatidyl-ethanolamine (PE) glycerophospholipids level ([1]; 1.8 mg): significantly reduced atherosclerotic plaque forming phosphatidyl-ethanolamine (PE) glycerophospholipids level; pro-atherogenic lyso-PC levels ([1]; 1.8 mg): significantly reduced pro-atherogenic lyso-PC levels; number of VLDL and LDL particles and of smaller HDL particles (2D-NMR) ([1]; Day 43 and Day 84 vs Day -1): tend to be reduced; serum lipid levels (glycerolipids, glycerophospholipids, sphingolipids) ([1]; within 12 weeks of treatment): significantly reduced serum lipid levels; systolic blood pressure reduction ([2]; 2.4 mg per week, week 24): significant; blood pressure and heart rate ([2]; all doses, week 24): improvements in blood pressure without clinically meaningful increases in heart rate; serum lipids ([2]; all doses, week 24): improvements in serum lipids; glycemic parameters (fasting glucose and HbA1c) ([2]; diabetic patients, all doses, Week 24): improvements in glycemic parameters
